Data: publication doi:10.1101/2020.07.12.199869v2 (bioRxiv, 2020)

Tested on: PGP/syndapin-2
Experiment: Proximity ligation assay PGP/syndapin-2 in BECs
Format: cell-based, mouse
Settings: polarised BECs, FAM-Aβ (1-40) 500 nM, 15 minutes; n = 60 images

For “5-Fluorescein-amyloid-β protein (Aβ 1-40) [FAM-Aβ (1-40)]”, the “change in interaction of syndapin-2 with PGP (PLA dots)” value was “no significant difference”.
